The target of this assay is human P2X3 receptor (Homo sapiens (Human), UniProt P56373). As to the kind of experiment: Evaluation of human P2X3 receptor inhibitory activity (Fluo-3 calcium fluorescence, FDSS 3000, ATP stimulation).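 Note: stimulus was 50 nM ATP with fluorescence followed for 3 min, and the response per well was peak post-ATP fluorescence divided by the reading at measurement start.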 The conditions noted are these: human P2X3 receptor, Test Example 1. Type of assay: cell-based.

Molecules are shown by their SMILES.

human P2X3 receptor, sequence (P56373 whole entry): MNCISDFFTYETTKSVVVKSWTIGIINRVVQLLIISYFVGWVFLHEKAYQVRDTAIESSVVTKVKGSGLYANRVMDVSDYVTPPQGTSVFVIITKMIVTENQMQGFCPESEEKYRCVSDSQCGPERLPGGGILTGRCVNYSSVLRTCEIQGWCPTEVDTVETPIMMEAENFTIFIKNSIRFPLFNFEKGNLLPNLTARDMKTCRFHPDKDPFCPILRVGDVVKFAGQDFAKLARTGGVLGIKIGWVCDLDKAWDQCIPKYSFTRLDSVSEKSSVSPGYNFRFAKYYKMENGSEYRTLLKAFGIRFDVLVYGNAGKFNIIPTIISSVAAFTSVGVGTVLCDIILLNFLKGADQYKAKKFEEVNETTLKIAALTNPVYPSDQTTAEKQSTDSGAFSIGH

Turning to `CCn1c(=O)[nH]/c(=N\c2ccc(Oc3nccc(C(N)=O)n3)cc2)n(Cc2ccc(Cl)cc2)c1=O` [Compound I-2311], the IC50 is 8 nM. The result for `CCc1cc2cc(/N=c3\[nH]c(=O)n(CC4COC(C)(C)OC4)c(=O)n3Cc3ccc(Cl)cc3)ccc2o1` [Compound I-2312] reads 5 nM.

`CCc1cc2cc(/N=c3\[nH]c(=O)n(CC(CO)CO)c(=O)n3Cc3ccc(Cl)cc3)ccc2o1` [Compound I-2313]: the IC50 amounted to 8 nM. The value for `CCc1cc2cc(/N=c3\[nH]c(=O)n(C[C@H]4COC(C)(C)O4)c(=O)n3Cc3ccc(Cl)cc3)ccc2o1` [Compound I-2314] was 7 nM; that for `CCc1cc2cc(/N=c3\[nH]c(=O)n(C[C@H](O)CO)c(=O)n3Cc3ccc(Cl)cc3)ccc2o1` [Compound I-2315] was 17 nM. The value for `CNCCCn1c(=O)[nH]/c(=N\c2ccc(OC(C)C)c(F)c2)n(Cc2ccc(Cl)cc2)c1=O` [Compound I-2316] was 51 nM.

Regarding `CC(=O)N(C)CCCn1c(=O)[nH]/c(=N\c2ccc(OC(C)C)c(F)c2)n(Cc2ccc(Cl)cc2)c1=O` [Compound I-2317], the 50% inhibitory concentration (IC50) turned out to be 3 nM. The value for `CCn1c(=O)[nH]/c(=N\c2ccc(Oc3cncc(C#N)c3)cc2)n(Cc2ccc(Cl)cn2)c1=O` [Compound I-2318] was 18 nM; that for `CCn1c(=O)[nH]/c(=N\c2ccc(Oc3nccc(C(=O)O)n3)cc2)n(Cc2ccc(Cl)cc2)c1=O` [Compound I-2319] was 17 nM; that for `CCn1c(=O)[nH]/c(=N\c2ccc(Oc3ccc(C(=O)O)cn3)cc2)n(Cc2ccc(Cl)cc2)c1=O` [Compound I-2320] was 6 nM.

Turning to `CCn1c(=O)[nH]/c(=N\c2ccc3nc(Cl)sc3c2)n(Cc2ccc(Cl)cc2)c1=O` [Compound I-2321], the IC50 came out at 11 nM. As to `CCn1c(=O)[nH]/c(=N\c2ccc(Oc3ncc(C(=O)OC)cn3)cc2)n(Cc2ccc(Cl)cc2)c1=O` [Compound I-2322], the 50% inhibitory concentration (IC50) was 6 nM. Turning to `CCn1c(=O)[nH]/c(=N\c2ccc(Oc3ncc(C(=O)O)cn3)cc2)n(Cc2ccc(Cl)cc2)c1=O` [Compound I-2323], the concentration for half-maximal inhibition (IC50) came out at 16 nM. The value for `CCn1c(=O)[nH]/c(=N\c2ccc3nc(OCC(=O)OC)sc3c2)n(Cc2ccc(Cl)cc2)c1=O` [Compound I-2324] was 115 nM; that for `CCn1c(=O)[nH]/c(=N\c2ccc3nc(O)sc3c2)n(Cc2ccc(Cl)cc2)c1=O` [Compound I-2325] was 47 nM. The result for `CCn1c(=O)[nH]/c(=N\c2ccc3nc(OCC(=O)O)sc3c2)n(Cc2ccc(Cl)cc2)c1=O` [Compound I-2326] reads 108 nM; that for `CCn1c(=O)[nH]/c(=N\c2ccc(Oc3cccc(/C=C/C(=O)OC)c3)cc2)n(Cc2ccc(C)cc2)c1=O` [Compound I-2327], 8 nM.

Regarding `COC(=O)/C=C/c1cccc(Oc2ccc(/N=c3\[nH]c(=O)n(C)c(=O)n3Cc3ccc(C)cc3)cc2)c1` [Compound I-2328], the IC50 was 34 nM. Consider `COC(=O)/C=C/c1cccc(Oc2ccc(/N=c3\[nH]c(=O)n(C)c(=O)n3Cc3ccc(Cl)cc3)cc2)c1` [Compound I-2329], for which the IC50 was found to be 70 nM. The result for `O=C(O)c1cc(Oc2ccc(/N=c3\[nH]c(=O)n(C4CC4)c(=O)n3Cc3ccc(Cl)cc3)cc2)ccn1` [Compound I-2330] reads 7 nM; that for `O=C(O)c1cncc(Oc2ccc(/N=c3\[nH]c(=O)n(C4CC4)c(=O)n3Cc3ccc(Cl)cc3)cc2)c1` [Compound I-2331], 7 nM; that for `COC(=O)c1cncc(Oc2ccc(/N=c3\[nH]c(=O)n(C4COC4)c(=O)n3Cc3ccc(Cl)cc3)cc2)c1` [Compound I-2332], 218 nM. Take `CC1(C)OC[C@H](Cn2c(=O)[nH]/c(=N\c3ccc(Oc4cncc(F)c4)cc3)n(Cc3ccc(Cl)cc3)c2=O)O1` [Compound I-2333]: the IC50 was 3 nM.

For `O=c1[nH]/c(=N\c2ccc(Oc3cncc(F)c3)cc2)n(Cc2ccc(Cl)cc2)c(=O)n1C[C@H](O)CO` [Compound I-2334], the IC50 was 5 nM. The result for `CCc1cc2cc(/N=c3\[nH]c(=O)n(CCCOC4CCCCO4)c(=O)n3Cc3ccc(Cl)cc3)ccc2o1` (centres unmarked) [Compound I-2335] reads 6 nM; that for `CCc1cc2cc(/N=c3\[nH]c(=O)n(CCCO)c(=O)n3Cc3ccc(Cl)cc3)ccc2o1` [Compound I-2336], 10 nM; that for `CCn1c(=O)[nH]/c(=N\c2ccc3nc(/C=N\OC)sc3c2)n(Cc2ccc(Cl)cc2)c1=O` [Compound I-2338], 260 nM.

Turning to `Cc1ccc(Cn2c(=O)n(C)c(=O)[nH]/c2=N\c2ccc(Oc3cc(C#N)ccn3)cc2)cc1` [Compound I-2340], the IC50 came out at 13 nM. As to `Cn1c(=O)[nH]/c(=N\c2ccc(Oc3cc(C#N)ccn3)cc2)n(Cc2ccc(Cl)cc2)c1=O` [Compound I-2341], the IC50 came to 10 nM. Turning to `Cc1ccc(Cn2c(=O)n(C)c(=O)[nH]/c2=N\c2ccc(Oc3cc(C(N)=O)ccn3)cc2)cc1` [Compound I-2342], the IC50 is 16 nM. The value for `Cc1ccc(Cn2c(=O)n(C)c(=O)[nH]/c2=N\c2ccc(Oc3cc(C(=O)O)ccn3)cc2)cc1` [Compound I-2343] was 19 nM; that for `CCn1c(=O)[nH]/c(=N\c2ccc(Oc3cccc(/C=C/C(=O)O)c3)cc2)n(Cc2ccc(C)cc2)c1=O` [Compound I-2344] was 3 nM; that for `CCn1c(=O)[nH]/c(=N\c2ccc(Oc3ncccc3C#N)cc2)n(Cc2ccc(Cl)cc2)c1=O` [Compound I-2345] was 20 nM. The result for `CCn1c(=O)[nH]/c(=N\c2ccc(Oc3nc(C)c(C(=O)O)s3)cc2)n(C[C@H]2CC[C@H](C)CC2)c1=O` [Compound I-2346] reads 4 nM; that for `CCn1c(=O)[nH]/c(=N\c2ccc(Oc3ncc(C(=O)O)s3)cc2)n(C[C@H]2CC[C@H](C)CC2)c1=O` [Compound I-2347], 5 nM. The value for `CCn1c(=O)[nH]/c(=N\c2ccc(Oc3nc(C(=O)O)cs3)cc2)n(C[C@H]2CC[C@H](C)CC2)c1=O` [Compound I-2348] was 4 nM; that for `CCn1c(=O)[nH]/c(=N\c2ccc(Oc3cc(C(=O)O)sn3)cc2)n(C[C@H]2CC[C@H](C)CC2)c1=O` [Compound I-2349] was 4 nM.

For `CCn1c(=O)[nH]/c(=N\c2ccc(Oc3ccsn3)cc2)n(C[C@H]2CC[C@H](C)CC2)c1=O` [Compound I-2350], the 50% inhibitory concentration (IC50) stood at 2 nM. The value for `CCn1c(=O)[nH]/c(=N\c2ccc(Oc3ccc(C(=O)O)nc3)cc2)n(C[C@H]2CC[C@H](C)CC2)c1=O` [Compound I-2351] was 9 nM. The result for `CCn1c(=O)[nH]/c(=N\c2ccc(Oc3cncc(C(=O)O)c3)cc2)n(C[C@H]2CC[C@H](C)CC2)c1=O` [Compound I-2352] reads 6 nM; that for `Cc1cc(Oc2ccc(/N=c3\[nH]c(=O)n(CC(CO)CO)c(=O)n3Cc3ccc(Cl)cc3)cc2)no1` [Compound I-2353], 8 nM; that for `CCn1c(=O)[nH]/c(=N\c2ccc(Oc3cccc(C(=O)O)c3)cc2)n(C[C@H]2CC[C@H](C)CC2)c1=O` [Compound I-2354], 3 nM. On to `Cc1nnc(Oc2ccc(/N=c3\[nH]c(=O)n(C)c(=O)n3Cc3ccc(Cl)cc3)cc2)o1` [Compound I-2355], for which the IC50 turned out to be 71 nM. The result for `Cn1c(=O)[nH]/c(=N\c2ccc(Oc3ccon3)cc2)n(Cc2ccc(Cl)cc2)c1=O` [Compound I-2356] reads 24 nM.

A word on the IC50: it is the concentration that inhibits the measured activity by half.

The values above are taken from US9718790B2, “Triazine derivative and pharmaceutical composition having an analgesic activity comprising the same” (SHIONOGI & CO., LTD., priority 2010, dated 2017).
